Data from US9458199B2, “Antigen surrogates in autoimmune disease” (OPKO Pharmaceuticals, LLC, priority 2011, dated 2016).
Bridge positions count the residues as written; N and C are the ends. Square brackets hold non-standard residues; d marks the D form. Peptide text beside a SMILES is read from it. ξ: configuration not given here. Gly(N-CH2CH2C6H4-4Cl) = O=C(O)CNCCc1ccc(Cl)cc1; Gly(N-piperonyl) = O=C(O)CNCc1ccc2c(c1)OCO2; Nrpe = C[C@@H](NCC(=O)O)c1ccccc1; NFurfurylGly = O=C(O)CNCc1ccco1; ξE = NC(CCC(=O)O)C(=O)O; Nleu = CC(C)CNCC(=O)O; Nlys = NCCCCNCC(=O)O; Nme = COCCNCC(=O)O

What was measured:
[1] = tested on: Myelin Oligodendrocyte Glycoprotein (MOG) 35-55 specific TCR transgenic T cells; assay: Antigen-stimulated T cell proliferation, CFSE dilution by flow cytometry; assay type: cell-based
[2] = tested on: MBP Ac1-11 specific T cells (Vα2.3/Vβ8.2 TCR transgenic); assay: DOPA chemical cross-linking, streptavidin staining, mean fluorescence intensity; design: species or system mice; settings: biotin-labeled DOPA-peptoid, periodate cross-linking, CD4+/streptavidin+ cells; read-out: Kr, of binding to MBP Ac1-11 specific T cells
[3] = tested on: wild-type CD4+ T cells; assay: Binding of quantum dot-labeled T cells to peptoid resynthesized on beads; design: species or system mice
[4] = tested on: B cells; assay: B cell proliferation; assay type: cell-based
[5] = tested on: CD4+ T cells from MBP Ac1-11 TCR transgenic mice; assay: Binding of quantum dot-labeled T cells to peptoid resynthesized on beads; settings: red quantum dot-labeled
Protocol: To determine whether AG12A was binding to the autoreactive TCR, the inventors took advantage of the existence of transgenic mice, in which the vast majority of CD4+ T cells express the MBP Ac1-11 specific TCR (Vα2.3/Vβ8.2 TCR) (Goveman et al., 1993). CD4+ T cells were isolated from these mice and tested for binding to AG12A. This was done in several ways. First, AG12A was resynthesized on beads, as was a control peptoid not selected as a T cell ligand. The beads were then incubated with red quantum dot-labeled T cells.

[6] = biological target: pemphigus vulgaris autoantibody (Dsg3); assay: Solution binding to pemphigus vulgaris autoantibody; settings: pemphigus vulgaris autoantibody to the Dsg autoantigen; read-out: binding affinity in solution

| Kd [6] [µM] | SMILES | inhibition of antigen-stimulated proliferation of MOG 35-55 specific TCR transgenic T cells [1] | Kd [2] [µM] | binding of T cells to peptoid displayed on beads [3] | inhibition of proliferation of B cells [4] | binding of T cells to peptoid displayed on beads [5] |
| --- | --- | --- | --- | --- | --- | --- |
|  | CC(C)CNCC(=O)N(CCCCN)CC(=O)N(CC(=O)N(CC(=O)N(CCCCN)CC(=O)N(CC(=O)N(CCCCN)CC(=O)N(CCCCN)CC(N)=O)CC(C)C)[C@H](C)c1ccccc1)Cc1ccco1 [AG12A] (H-[Nleu][Nlys][NFurfurylGly][Nrpe][Nlys][Nleu][Nlys][Nlys]-NH2; C-terminus assumed) | did not inhibit | ~40 | did not | nor did AG12A inhibit proliferation of B cells | bound to AG12A displayed on beads |
| ~10 | COCCN1CC(=O)N(CCCCN)CC(=O)N(Cc2ccc3c(c2)OCO3)CC(=O)N(CCc2ccc(Cl)cc2)CC(=O)NC(C(N)=O)CCC1=O (stereo not drawn) [compound 1a] ([Nme][Nlys][Gly(N-piperonyl)][Gly(N-CH2CH2C6H4-4Cl)][ξE]-NH2; lactam N-5) |  |  |  |  |  |
